Laboratory results taken from patent publication US10160755B2 (Plexxikon Inc., priority 2015, dated 2018).

Tests used:
FLT3-ITD = target: T1, FLT3-ITD (Homo sapiens, UniProt P36888); assay: FLT3-ITD biochemical kinase assay (AlphaScreen)
T1 construct: FLT3-ITD; Invitrogen #PV6190
T1 sequence (P36888 1-993): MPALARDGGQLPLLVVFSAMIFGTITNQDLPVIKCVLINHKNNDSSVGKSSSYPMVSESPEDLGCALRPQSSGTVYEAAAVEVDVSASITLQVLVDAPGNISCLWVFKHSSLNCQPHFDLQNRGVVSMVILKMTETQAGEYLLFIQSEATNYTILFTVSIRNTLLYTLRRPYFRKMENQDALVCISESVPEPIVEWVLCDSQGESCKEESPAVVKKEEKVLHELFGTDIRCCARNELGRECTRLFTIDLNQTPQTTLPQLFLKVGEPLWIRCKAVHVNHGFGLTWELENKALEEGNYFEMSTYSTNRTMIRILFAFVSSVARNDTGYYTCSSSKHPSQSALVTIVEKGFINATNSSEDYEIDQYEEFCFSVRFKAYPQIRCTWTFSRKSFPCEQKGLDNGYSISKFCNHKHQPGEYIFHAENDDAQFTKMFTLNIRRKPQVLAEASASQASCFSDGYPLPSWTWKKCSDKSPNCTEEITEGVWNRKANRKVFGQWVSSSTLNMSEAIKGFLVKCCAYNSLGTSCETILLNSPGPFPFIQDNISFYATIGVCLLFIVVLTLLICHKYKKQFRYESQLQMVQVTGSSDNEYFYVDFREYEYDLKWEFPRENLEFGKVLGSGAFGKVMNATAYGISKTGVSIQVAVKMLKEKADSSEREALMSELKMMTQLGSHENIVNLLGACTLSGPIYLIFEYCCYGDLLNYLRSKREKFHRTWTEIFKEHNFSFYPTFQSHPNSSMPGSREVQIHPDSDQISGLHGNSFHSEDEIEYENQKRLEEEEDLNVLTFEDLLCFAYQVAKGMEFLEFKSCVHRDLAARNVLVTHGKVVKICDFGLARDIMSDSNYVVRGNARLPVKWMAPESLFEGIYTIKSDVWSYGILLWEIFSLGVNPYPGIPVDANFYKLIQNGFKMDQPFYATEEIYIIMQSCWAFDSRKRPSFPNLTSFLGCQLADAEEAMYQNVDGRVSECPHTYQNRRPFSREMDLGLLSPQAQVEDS
In short: (§1)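 AlphaScreen read-out of tyrosine phosphorylation of a 30 nM biotinylated poly(Glu4-Tyr) substrate, captured on streptavidin donor and PY20 acceptor beads at room temperature. ATP for IC50 work was 100 μM with FLT3-ITD and 10 μM with FLT3-D835Y; reduced 580 nm proximity signal reflects kinase inhibition.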

FLT3-D835Y = target: T2, FLT3-D835Y (Homo sapiens, UniProt P36888, D835Y); assay: FLT3-D835Y biochemical kinase assay (AlphaScreen)
T2 construct: purchased Invitrogen PV3967
T2 sequence (P36888 27-993 D835Y): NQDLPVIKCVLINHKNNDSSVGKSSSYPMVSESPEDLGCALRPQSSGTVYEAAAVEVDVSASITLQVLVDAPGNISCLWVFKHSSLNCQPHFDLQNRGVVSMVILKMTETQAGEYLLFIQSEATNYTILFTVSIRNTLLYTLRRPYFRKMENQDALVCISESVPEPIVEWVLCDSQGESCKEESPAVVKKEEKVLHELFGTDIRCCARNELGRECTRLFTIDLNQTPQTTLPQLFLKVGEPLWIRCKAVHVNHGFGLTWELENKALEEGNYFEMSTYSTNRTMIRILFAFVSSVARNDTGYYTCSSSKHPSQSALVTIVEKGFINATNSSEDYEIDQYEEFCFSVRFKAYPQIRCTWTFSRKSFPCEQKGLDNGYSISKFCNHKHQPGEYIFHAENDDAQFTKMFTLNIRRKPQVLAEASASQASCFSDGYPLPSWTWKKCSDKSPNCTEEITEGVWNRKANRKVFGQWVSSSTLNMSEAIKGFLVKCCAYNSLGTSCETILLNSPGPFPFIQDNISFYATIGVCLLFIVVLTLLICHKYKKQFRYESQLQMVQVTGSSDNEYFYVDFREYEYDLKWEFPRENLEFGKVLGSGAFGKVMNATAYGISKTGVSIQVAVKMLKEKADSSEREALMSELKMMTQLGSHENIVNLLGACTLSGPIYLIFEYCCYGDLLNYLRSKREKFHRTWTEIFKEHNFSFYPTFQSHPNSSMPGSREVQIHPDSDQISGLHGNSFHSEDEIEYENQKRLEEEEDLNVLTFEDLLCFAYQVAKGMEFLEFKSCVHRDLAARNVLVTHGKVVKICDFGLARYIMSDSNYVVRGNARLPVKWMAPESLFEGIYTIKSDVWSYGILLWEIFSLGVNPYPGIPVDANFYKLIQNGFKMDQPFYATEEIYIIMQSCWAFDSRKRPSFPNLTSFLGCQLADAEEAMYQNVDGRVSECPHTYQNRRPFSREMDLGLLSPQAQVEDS
In short: as §1

| SMILES | IC50 (FLT3-ITD) [µM] | IC50 (FLT3-D835Y) [µM] |
| --- | --- | --- |
| CC(C)(C)n1cnc2ccc(-c3c[nH]c4ncc(-c5cnn(C(F)F)c5)nc34)cc21 [P-255, 7-(3-tert-butylbenzimidazol-5-yl)-2-[1-(difluoromethyl)pyrazol-4-yl]-5H-pyrrolo[2,3-b]pyrazine] | 0.0001 to 1 | 0.0001 to 1 |
| COc1cc(-c2cnc3[nH]cc(-c4ccc5ncn([C@@H]6CCCNC6)c5c4)c3n2)ccn1 [P-254, 2-(2-methoxy-4-pyridyl)-7-[3-[(3R)-3-piperidyl]benzimidazol-5-yl]-5H-pyrrolo[2,3-b]pyrazine] | 0.0001 to 1 | 0.0001 to 1 |
| CC(C)(C)n1cnc2ccc(-c3c[nH]c4ncc(NC(=O)c5cccc(C#N)c5)cc34)cc21 [P-235, N-[3-(3-tert-butylbenzimidazol-5-yl)-1H-pyrrolo[2,3-b]pyridin-5-yl]-3-cyano-benzamide] | 0.0001 to 1 | 0.0001 to 1 |
| c1cc(-c2cnc3[nH]cc(-c4ccc5ncn(C6CCCNC6)c5c4)c3c2)cc(N2CCOCC2)n1 (stereo not drawn) [P-223, 4-[4-[3-[3-(3-piperidyl)benzimidazol-5-yl]-1H-pyrrolo[2,3-b]pyridin-5-yl]-2-pyridyl]morpholine] | 0.0001 to 1 | 0.0001 to 1 |
| O=C(Nc1cccc(F)c1)c1cnc2[nH]cc(-c3ccc4ncn(C5CCCNC5)c4c3)c2c1 (stereo not drawn) [P-178, N-(3-fluorophenyl)-3-[3-(3-piperidyl)benzimidazol-5-yl]-1H-pyrrolo[2,3-b]pyridine-5-carboxamide] | 0.0001 to 1 | 0.0001 to 1 |
| CC(C)(C)n1cnc2ccc(-c3c[nH]c4ncc(-c5cnn(C(F)F)c5)cc34)cc21 [P-251, 1-tert-butyl-6-[5-[1-(difluoromethyl)pyrazol-4-yl]-1H-pyrrolo[2,3-b]pyridin-3-yl]benzimidazole] | 0.0001 to 1 | 0.0001 to 1 |
| COc1cc(-c2cnc3[nH]cc(-c4ccc5ncn(C6CCCN(C)C6)c5c4)c3n2)ccn1 (stereo not drawn) [P-271, 2-(2-methoxy-4-pyridyl)-7-[3-(1-methyl-3-piperidyl)benzimidazol-5-yl]-5H-pyrrolo[2,3-b]pyrazine] | 0.0001 to 1 | 0.0001 to 1 |
| CC(C)(C)n1cnc2ccc(-c3c[nH]c4ncc(-c5cccc(N6CCCS6(=O)=O)c5)nc34)cc21 [P-231, 2-[3-[7-(3-tert-butylbenzimidazol-5-yl)-5H-pyrrolo[2,3-b]pyrazin-2-yl]phenyl]-1,2-thiazolidine 1,1-dioxide] | 0.0001 to 1 | 0.0001 to 1 |
| COc1cnc2[nH]cc(-c3cnc4ncn(Cc5cc(C)on5)c4c3)c2c1 [P-144, 3-[[6-(5-methoxy-1H-pyrrolo[2,3-b]pyridin-3-yl)imidazo[4,5-b]pyridin-1-yl]methyl]-5-methyl-isoxazole] | 0.0001 to 1 | 0.0001 to 1 |
| COc1cnc2[nH]cc(-c3ccc4ncn(-c5cccc(Cl)c5)c4c3)c2c1 [P-105, 1-(3-chlorophenyl)-6-(5-methoxy-1H-pyrrolo[2,3-b]pyridin-3-yl)benzimidazole] | 0.0001 to 1 | 0.0001 to 1 |
| CC(C)(C)n1cnc2ccc(-c3c[nH]c4ncc(-c5ccc(N6CCOCC6)cc5)nc34)cc21 [P-100, 4-[4-[7-(3-tert-butylbenzimidazol-5-yl)-5H-pyrrolo[2,3-b]pyrazin-2-yl]phenyl]morpholine] | 0.0001 to 1 | 0.0001 to 1 |
| Cn1cnc2ccc(-c3c[nH]c4ncc(-c5cnn(CC(F)(F)F)c5)cc34)cc21 [P-175, 1-methyl-6-[5-[1-(2,2,2-trifluoroethyl)pyrazol-4-yl]-1H-pyrrolo[2,3-b]pyridin-3-yl]benzimidazole] | 0.0001 to 1 | 0.0001 to 1 |
| COc1ncccc1C#Cc1cnc2[nH]cc(-c3ccc4ncn(C(C)(C)C)c4c3)c2n1 [P-250, 7-(3-tert-butylbenzimidazol-5-yl)-2-[2-(2-methoxy-3-pyridyl)ethynyl]-5H-pyrrolo[2,3-b]pyrazine] | 0.0001 to 1 | 0.0001 to 1 |
| N#Cc1cc(-c2cnc3[nH]cc(-c4ccc5ncn(C6CCCNC6)c5c4)c3c2)ccc1F (stereo not drawn) [P-208, 2-fluoro-5-[3-[3-(3-piperidyl)benzimidazol-5-yl]-1H-pyrrolo[2,3-b]pyridin-5-yl]benzonitrile] | 0.0001 to 1 | 0.0001 to 1 |
| CC(C)(C)n1cnc2ccc(-c3c[nH]c4ncc(-c5ccnc(N6CCOCC6)c5)nc34)cc21 [P-228, 4-[4-[7-(3-tert-butylbenzimidazol-5-yl)-5H-pyrrolo[2,3-b]pyrazin-2-yl]-2-pyridyl]morpholine] | 0.0001 to 1 | 0.0001 to 1 |
| COC(=O)N1CCCC(n2cnc3ccc(-c4c[nH]c5ncc(-c6ccnc(OC)c6)nc45)cc32)C1 (stereo not drawn) [P-261, methyl 3-(6-(2-(2-methoxypyridin-4-yl)-5H-pyrrolo[2,3-b]pyrazin-7-yl)-1H-benzo[d]imidazol-1-yl)piperidine-1-carboxylate] | 0.0001 to 1 | 0.0001 to 1 |
| COc1cc(-c2cnc3[nH]cc(-c4ccc5ncn(C(C)(C)CO)c5c4)c3n2)ccn1 [P-186, 2-[6-[2-(2-methoxy-4-pyridyl)-5H-pyrrolo[2,3-b]pyrazin-7-yl]benzimidazol-1-yl]-2-methyl-propan-1-ol] | 0.0001 to 1 | 0.0001 to 1 |
| CC(C)(C)n1cnc2ccc(-c3c[nH]c4ncc(-c5cnn(CC(F)(F)F)c5)cc34)cc21 [P-252, 1-tert-butyl-6-[5-[1-(2,2,2-trifluoroethyl)pyrazol-4-yl]-1H-pyrrolo[2,3-b]pyridin-3-yl]benzimidazole] | 0.0001 to 1 | 0.0001 to 1 |
| CCCS(=O)(=O)Nc1cccc(-c2cnc3[nH]cc(-c4ccc5ncn(C(C)(C)C)c5c4)c3c2)c1 [P-216, N-[3-[3-(3-tert-butylbenzimidazol-5-yl)-1H-pyrrolo[2,3-b]pyridin-5-yl]phenyl]propane-1-sulfonamide] | 0.0001 to 1 | 0.0001 to 1 |
| c1cc(N2CCOCC2)ccc1-c1cnc2[nH]cc(-c3ccc4ncn(C5CCCNC5)c4c3)c2n1 (stereo not drawn) [P-101, 4-[4-[7-[3-(3-piperidyl)benzimidazol-5-yl]-5H-pyrrolo[2,3-b]pyrazin-2-yl]phenyl]morpholine] | 0.0001 to 1 | 0.0001 to 1 |
| C#Cc1cnc2[nH]cc(-c3ccc4ncn(C(C)(C)C)c4c3)c2n1 [P-259, 7-(3-tert-butylbenzimidazol-5-yl)-2-ethynyl-5H-pyrrolo[2,3-b]pyrazine] | 0.0001 to 1 | 0.0001 to 1 |
| COc1ncc(-c2cnc3[nH]cc(-c4ccc5ncn(C(C)C)c5c4)c3c2)cn1 [P-269, 1-isopropyl-6-[5-(2-methoxypyrimidin-5-yl)-1H-pyrrolo[2,3-b]pyridin-3-yl]benzimidazole] | 0.0001 to 1 | 0.0001 to 1 |
| O=S1(=O)CCCCN1c1cccc(-c2cnc3[nH]cc(-c4ccc5ncn(C6CCCNC6)c5c4)c3n2)c1 (stereo not drawn) [P-253, 2-[3-[7-[3-(3-piperidyl)benzimidazol-5-yl]-5H-pyrrolo[2,3-b]pyrazin-2-yl]phenyl]thiazinane 1,1-dioxide] | 0.0001 to 1 | 0.0001 to 1 |
| C(#Cc1cnc2[nH]cc(-c3ccc4ncn(C5CCCNC5)c4c3)c2n1)c1ccccc1 (stereo not drawn) [P-248, 2-(2-phenylethynyl)-7-[3-(3-piperidyl)benzimidazol-5-yl]-5H-pyrrolo[2,3-b]pyrazine] | 0.0001 to 1 | 0.0001 to 1 |
